Reference: patent publication US12472177B2, “Bicyclic compounds and methods for their use in treating Pitt Hopkins syndrome” (NEUREN PHARMACEUTICALS LIMITED, priority 2019, dated 2025)

Assays:
[1] = test system: Tcf4^+/− mice; assay: Hind limb force (motor performance); assay type: in vivo, mouse; parameters: key to Test of Force (Hind Limb): Tukey’s Muliple Comparison Test Summary: **** = p < 0.00001; ns = not significant
Procedure: (§1) In vivo behavioral studies were conducted in Tcf4^+/− mutant and wildtype littermate control (WT) mice by Gen.DDI (Santiago, Chile). Littermate controls consist of the genotypes Tcf4^+/+. All Tcf4 mutant mice used were heterozygous for the Tcf4 mutation because homozygous mutations of Tcf4 result in embryonic to postnatal day 1 lethality. Ten mice per treatment group, 14 weeks of age, were used for behavioral experiments. Experiments were conducted in line with the requirements of the UK Animals (Scientific Procedures) Act, 1986. The mice were housed in plastic cages (35×30×12 cm), 5 in each and habituated to the animal facilities for at least a week before commencing the test. The room temperature (21° C.±2° C.), relative humidity (55%±5%), a 12-hour light-dark cycle (lights on 7 AM to 7 PM), and air exchange were automatically controlled. The animals had free access to commercial food pellets and water. Testing was performed during the light phase of the circadian cycle, with the order of testing being determined by the principle of conducting the most stressful tests last. Assays were designed to reproduce and expand on the original behavioral characterization of Tcf4^+/− mice. Tcf4^+/− and WT control mice were treated for 6 weeks prior to testing and tested 30 minutes following a dose of cG-2-AllylP, as described in Table 2 below.
Hind limb force is an important measure of the ability of a mouse to jump away from a predator. However, animals with the Tcf4^+/− mutation have substantially lower ability to jump away from a predator, making this mutation very serious and potentially life threatening. Hind limb force is also considered a surrogate for motor function in humans. To determine if NNZ-2591 (cG-2-AllylP) might provide a helpful treatment for this condition, we carried out a series of studies in which we measured hind limb force.

[2] = test system: Tcf4^+/− mice; assay: Tcf4^+/− mouse model of Pitt Hopkins Syndrome, all tested behaviors (summary); assay type: in vivo
Procedure: Several genetically manipulated rodent models of PTHS have been created (Thaxton et al, 2018; Sweatt, 2013). These models share a common basis around heterozygous Tcf4 (Tcf4^+/−). Haploinsufficient mice (Tcf4^+/−) have been characterized as a model system for PTHS (Kennedy et al, 2016).
as §1

[3] = test system: Tcf4^+/− mice; assay: Self grooming (repetitive behavior); assay type: in vivo, mouse; parameters: key to Self-Grooming/Repetitive Behavior: Tukey’s Multiple Comparison Test Summary: **** = p < 0.00001; ns = not significant
Procedure: as §1
Repetitive self-grooming is a feature of mice. Tcf4^+/− mice show an increased amount of self-grooming compared to wild type mice. To see if NNZ-2591 (cG-2-AllylP) can normalize self-grooming behavior in Tcf4^+/− mice, we carried out a series of studies, as shown in FIG. 3.
The amount of time spent grooming in seconds during a 10-minute test period is shown on the vertical axis, and the animals and treatments are shown on the horizontal axis. Wild type (WT) mice treated with vehicle alone (left column) self-groomed for about 110 sec. […] This difference was not statistically significant. […] This statistically significant finding was completely unexpected in Tcf4^+/− mice.

[4] = Delivery of cG-2-AllylP into the brain after oral administration (CSF, blood, brain exposure); assay type: in vivo, Sprague Dawley rats; settings: rat
Procedure: In an in vivo study, male Sprague Dawley rats (aged 14 weeks) received a single dose of cG-2-AllylP, either 100 mg/kg or 200 mg/kg by oral gavage. Cerebrospinal fluid (CSF) and whole blood were collected at 1.5 and 4 hours postdose, and brain tissue was collected at 4 hours postdose to evaluate cG-2-AllylP exposure.

[5] = Tcf4^+/− + cG-2-AllylP (100 mg/kg) vs Tcf4^+/− + cG-2-AllylP (200 mg/kg)
[6] = Tcf4^+/− + cG-2-AllylP (100 mg/kg) vs WT + cG-2-AllylP (200 mg/kg)
[7] = Tcf4^+/− + vehicle vs Tcf4^+/− + cG-2-AllylP (100 mg/kg)
[8] = Tcf4^+/− + vehicle vs Tcf4^+/− + cG-2-AllylP (200 mg/kg)
[9] = Tcf4^+/− + vehicle vs WT + cG-2-AllylP (100 mg/kg)
[10] = Tcf4^+/− + vehicle vs WT + cG-2-AllylP (200 mg/kg)
[11] = WT + cG-2-AllylP (100 mg/kg) vs Tcf4^+/− + cG-2-AllylP (100 mg/kg)
[12] = WT + cG-2-AllylP (100 mg/kg) vs Tcf4^+/− + cG-2-AllylP (200 mg/kg)
[13] = WT + cG-2-AllylP (100 mg/kg) vs WT + cG-2-AllylP (200 mg/kg)
[14] = WT + cG-2-AllylP (200 mg/kg) vs Tcf4^+/− + cG-2-AllylP (200 mg/kg)
[15] = WT + vehicle vs Tcf4^+/− + cG-2-AllylP (100 mg/kg)
[16] = WT + vehicle vs Tcf4^+/− + cG-2-AllylP (200 mg/kg)
[17] = WT + vehicle vs WT + cG-2-AllylP (100 mg/kg)
[18] = WT + vehicle vs WT + cG-2-AllylP (200 mg/kg)
[19] = WT mice, 100 mg/kg oral BID 6 weeks
[20] = single oral dose 100 mg/kg, 1.5 h postdose
[21] = single oral dose 100 mg/kg, 4 h postdose
[22] = single oral dose 200 mg/kg, 1.5 h postdose
[23] = single oral dose 200 mg/kg, 4 h postdose

With `C=CC[C@]12CCCN1C(=O)CNC2=O` [cG-2-AllylP, (8aS)-Allyl-hexahydropyrrolo[1,2-a]pyrazine-1,4-dione] the “Test of Force (Hind Limb): Tukey’s Muliple Comparison Test Summary” value (from here on “Test of Force (Hind Limb)”) [1, 5] was “ns”, the “Test of Force (Hind Limb)” value [1, 6] was “ns” and the “Test of Force (Hind Limb)” value [1, 7] was “**** (**** = p <0.00001)”. The “Test of Force (Hind Limb)” value [1, 8] was “**** (**** = p <0.00001)”, the “Test of Force (Hind Limb)” value [1, 9] was “**** (**** = p <0.00001)” and the “Test of Force (Hind Limb)” value [1, 10] was “**** (**** = p <0.00001)”. For the same compound, the “Behavior Normalized to WildType Levels: Force” value ([1]; Tcf4^+/− mice, 100 mg/kg) was “✓”, the Hind limb force ([1]; Tcf4^+/− mice, 100 mg/kg oral BID 6 weeks) was “nearly identical to those produced by WT mice” and the “Behavior Normalized to WildType Levels: Force” value ([1]; Tcf4^+/− mice, 200 mg/kg) was “✓”. The Hind limb force ([1]; Tcf4^+/− mice, 200 mg/kg oral BID 6 weeks) was “nearly identical to those produced by WT mice”, the “Test of Force (Hind Limb)” value [1, 11] was “ns” and the “Test of Force (Hind Limb)” value [1, 12] was “ns”. For the same compound, the “Test of Force (Hind Limb)” value [1, 13] was “ns”, the “Test of Force (Hind Limb)” value [1, 14] was “ns” and the “Test of Force (Hind Limb)” value [1, 15] was “ns”. The “Test of Force (Hind Limb)” value [1, 16] was “ns”, the “Test of Force (Hind Limb)” value [1, 17] was “ns” and the “Test of Force (Hind Limb)” value [1, 18] was “ns”. The Hind limb force [1, 19] was “about the same levels of force as vehicle-treated WT mice”, the Hind limb force ([1]; WT mice, 200 mg/kg oral BID 6 weeks) was “about the same levels of force as vehicle-treated WT mice” and the “Rescue of tested behaviors of the PTHS phenotype” value ([2]; Tcf4^+/− mice, 100 mg/kg for 6 weeks) was “rescued all tested behaviors, except for fear conditioning”. The “Rescue of tested behaviors of the PTHS phenotype” value ([2]; Tcf4^+/− mice, 200 mg/kg for 6 weeks) was “rescued all tested behaviors of the PTHS phenotype”, the “Rescue of the phenotype of the Tcf4^+/− knockout mouse model” value ([2]; Tcf4^+/− mice, oral administration for 6 weeks) was “can rescue the phenotype” and the “Impact on wild type control mice” value ([2]; WT mice, oral administration for 6 weeks) was “no impact”. The “Self-Grooming/Repetitive Behavior: Tukey’s Multiple Comparison Test Summary” value (from here on “Self-Grooming/Repetitive Behavior”) [3, 5] was “ns”, the “Self-Grooming/Repetitive Behavior” value [3, 6] was “ns” and the “Self-Grooming/Repetitive Behavior” value [3, 7] was “**** (**** = p < 0.0001)”. For the same compound, the “Self-Grooming/Repetitive Behavior” value [3, 8] was “**** (**** = p < 0.0001)”, the “Self-Grooming/Repetitive Behavior” value [3, 9] was “**** (**** = p < 0.0001)” and the “Self-Grooming/Repetitive Behavior” value [3, 10] was “**** (**** = p < 0.0001)”. For the same compound, the “Behavior Normalized to WildType Levels: Self-groom” value ([3]; Tcf4^+/− mice, 100 mg/kg) was “✓”, the “Time spent self-grooming during a 10-minute test period” value ([3]; Tcf4^+/− mice, 100 mg/kg oral BID 6 weeks, 100 mg/kg) was “corrected” and the “Time spent self-grooming during a 10-minute test period” value ([3]; Tcf4^+/− mice, 100 mg/kg oral BID 6 weeks, listed as NNZ-2591, 100 mg/kg) was “about the same amount of time self-grooming as WT vehicle treated mice”. The “Behavior Normalized to WildType Levels: Self-groom” value ([3]; Tcf4^+/− mice, 200 mg/kg) was “✓”, the “Time spent self-grooming during a 10-minute test period” value ([3]; Tcf4^+/− mice, 200 mg/kg oral BID 6 weeks, 200 mg/kg) was “corrected” and the “Time spent self-grooming during a 10-minute test period” value ([3]; Tcf4^+/− mice, 200 mg/kg oral BID 6 weeks, listed as NNZ-2591, 200 mg/kg) was “about the same amount of time self-grooming as WT vehicle treated mice”. For the same compound, the “Self-Grooming/Repetitive Behavior” value [3, 11] was “ns”, the “Self-Grooming/Repetitive Behavior” value [3, 12] was “ns” and the “Self-Grooming/Repetitive Behavior” value [3, 13] was “ns”. For the same compound, the “Self-Grooming/Repetitive Behavior” value [3, 14] was “ns”, the “Self-Grooming/Repetitive Behavior” value [3, 15] was “ns” and the “Self-Grooming/Repetitive Behavior” value [3, 16] was “ns”. The “Self-Grooming/Repetitive Behavior” value [3, 17] was “ns”, the “Self-Grooming/Repetitive Behavior” value [3, 18] was “ns” and the “Time spent self-grooming during a 10-minute test period” value [3, 19] was “about the same amount of time as did WT mice treated with vehicle alone”. The “Dose dependence of concentration in blood, CSF and brain” value ([4]; 100 vs 200 mg/kg single oral dose, blood and CSF at 1.5 h, blood, CSF and brain at 4 h) was “approximately proportional increase”, the “Concentration in blood compared with brain tissue” value ([4]; 4 hours post dose) was “approximately equivalent” and the “Concentration of cG-2-AllylP in Blood” value [4, 20] was 58500 ng/mL. The “Concentration of cG-2-AllylP in CSF” value [4, 20] was 40400 ng/mL, the “Concentration of cG-2-AllylP in Blood” value [4, 21] was 15600 ng/mL and the “Concentration of cG-2-AllylP in Brain” value [4, 21] was 22600 ng/mL. For the same compound, the “Concentration of cG-2-AllylP in CSF” value [4, 21] was 11000 ng/mL, the “Concentration of cG-2-AllylP in Blood” value [4, 22] was 116000 ng/mL and the “Concentration of cG-2-AllylP in CSF” value [4, 22] was 82200 ng/mL. The “Concentration of cG-2-AllylP in Blood” value [4, 23] was 34200 ng/mL, the “Concentration of cG-2-AllylP in Brain” value [4, 23] was 37000 ng/mL and the “Concentration of cG-2-AllylP in CSF” value [4, 23] was 24700 ng/mL.
